# pIC50: −log10 of the molar value.
# Legend:
# [1] = test system: TALL1 Human T-cell acute lymphoblastic leukemia; assay: Human tumor xenograft model in mice: TALL1; assay type: in vivo
# [2] = High Throughput (HT) Metabolic Stability Panel, human liver microsomes; settings: human, microsomes, 10 min, 0.5 µM, pH 7.4
# Procedure: (§1) Each compound was tested in duplicate.
# [3] = test system: MDA-MB-468 Human Breast Carcinoma; assay: Human tumor xenograft model in mice: MDA-MB-468 (combination with paclitaxel); assay type: in vivo; settings: for Tumor Growth Delay / Tumor Growth Delay (LCK): target tumor size 500 mg
# [4] = test system: human tumor xenografts; assay: Human Tumor Xenograft Models in Mice (various tumors); assay type: in vivo; settings: for Antitumor Activity (% TGI): PO, QD × 15, 10 day-on-2 day-off, 5-10 mg/kg/adm
# [5] = test system: ER receptor positive human breast carcinoma xenograft MCF7; assay: Human tumor xenograft model in mice: MCF7 (combination with Tamoxifen); assay type: in vivo; settings: for Tumor Growth Inhibition TGI: target tumor size 500 mg
# [6] = test system: human breast carcinoma cell line MDA-MB-157; assay: Human tumor xenograft model in mice: MDA-MB-157; assay type: in vivo
# [7] = test system: human T-ALL leukemia xenografts HPB-ALL; assay: Human tumor xenograft model in mice: HPB-ALL (combination with dexamethasone); assay type: in vivo; settings: for Tumor Growth Delay / Tumor Growth Delay (LCK): target tumor size 3000 mg
# [8] = test system: ALL-SIL T-cell lymphoblastic leukemia; assay: Human tumor xenograft model in mice: ALL-SIL (combination with dasatinib); assay type: in vivo; settings: for Tumor Growth Delay / Tumor Growth Delay (LCK): target tumor size 1000 mg
# [9] = test system: Notch 3; assay: Notch-CBF1 Transactivation Assay (Notch 3); assay type: cell-based; settings: HeLa cells, luciferase, rounded to 2 digits, read-out: Notch 3 (IC50)
# Source text: (§2) Table 12 denotes respective DNA quantity for the transfections.
# (§3) Duplicates were used for each sample.
# [10] = test system: human ovarian teratocarcinoma xenograft PA-1; assay: Human tumor xenograft model in mice: PA-1 (combination with carboplatin); assay type: in vivo
# [11] = test system: Notch 1; assay: Notch-CBF1 Transactivation Assay (Notch 1); assay type: cell-based; settings: HeLa cells, luciferase, rounded to 2 digits, read-out: Notch 1 (IC50)
# Source text: as §2, §3
# [12] = High Throughput (HT) Metabolic Stability Panel, mouse liver microsomes; settings: mouse, microsomes, 10 min, 0.5 µM, pH 7.4
# Procedure: as §1
# [13] = 7.5-10 mg/kg, oral, QD × 15, 10 Day-on-2 Day-off
# [14] = Example 1 3.75 mg/kg PO, QD x 3, weekly x 7
# [15] = Example 1 […] PO, QD x 3, weekly x 7
# [16] = Example 1 3.75 mg/kg PO, QD ×3, weekly ×3
# [17] = Example 1 3.75 mg/kg PO, QD x 3, weekly x 3
# [18] = Example 1 […] PO, QD x 3, weekly x 3
# [19] = Example 1 1 mg/kg PO, QD x 21, target tumor size 500 mg
compound,measurement,setting,value
"CN1C(=O)[C@@H](NC(=O)[C@H](CCC(F)(F)F)[C@H](CCC(F)(F)F)C(N)=O)N=C(c2ccccc2)c2ccccc21 [Example 1, (2R,3S)—N-((3S)-1-Methyl-2-oxo-5-phenyl-2,3-dihydro-1H-1,4-benzodiazepin-3-yl)-2,3-bis(3,3,3-trifluoropropyl)succinamide]",Antitumor Activity TALL1 (LCK),[1]; [13],>4.7 LCK
same,Antitumor Activity (% TGI),"[1]; TALL1, T-Cell acute lymphoblastic leukemia, PO, QD × 15, 10 day-on-2 day-off, 5-10 mg/kg/adm",112 % TGI
same,antitumor activity,"[1]; intravenous route (IV), FIG. 6: TALL1, 5 mg/kg/adm, QD×3, IV",exhibited antitumor activity
same,0.5 μM HLM (% Remaining),[2],97%
same,CR (%),[3]; [14],0%
same,PR (%),[3]; [14],0%
same,Tumor Growth Delay,[3]; [14],7.8 days
same,Tumor Growth Delay (LCK),[3]; [14],0.5 LCK
same,Tumor Growth Delay,[3]; [15],21.2 days
same,Tumor Growth Delay (LCK),[3]; [15],1.4 LCK
same,Antitumor Activity (% TGI),"[3]; MDA-MB468, TN breast cancer, single agent, PO, QD × 15, 10 day-on-2 day-off, 5-10 mg/kg/adm",91 % TGI
same,Antitumor Activity MDA-MB-468 (% TGI),"[3]; single agent, 7.5-10 mg/kg, oral, QD × 15, 10 Day-on-2 Day-off",78 % TGI
same,Antitumor Activity (% TGI),"[4]; BT-474, HER2+ breast cancer",96 % TGI
same,Antitumor Activity (% TGI),"[4]; Calu-6, Non small cell lung cancer",81 % TGI
same,Antitumor Activity (% TGI),"[4]; G292, osteogenic sarcoma",75 % TGI
same,Antitumor Activity (% TGI),"[4]; HCT116, colon cancer",75 % TGI
same,Antitumor Activity (% TGI),"[4]; MCF7i, estrogen-independent breast cancer",63 % TGI
same,Antitumor Activity (% TGI),"[4]; Pat-21/Abx R, TN breast cancer (abx R)",73 % TGI
same,Antitumor Activity (% TGI),"[4]; Pat-24, pancreatic cancer",111 % TGI
same,Antitumor Activity (% TGI),"[4]; Pat-26, pancreatic cancer",93 % TGI
same,Antitumor Activity (% TGI),"[4]; Pat-34, ovarian cancer",89 % TGI
same,Antitumor Activity (% TGI),"[4]; Pat-50, ovarian cancer",91 % TGI
same,Antitumor Activity (% TGI),"[4]; SK-N-AS, neuroblastoma",67 % TGI
same,Antitumor Activity (% TGI),"[4]; U-87, glioblastoma multiforme (GBM)",82 % TGI
same,antitumor activity,[4]; oral administration (PO),showed antitumor activity
same,human cancer xenografts in which significant antitumor activity was demonstrated,[4]; xenografts grown in mice,16
same,CR (%),[5]; [16],0%
same,PR (%),[5]; [16],0%
same,Tumor Growth Inhibition TGI,[5]; [16],43%
same,Tumor Growth Inhibition TGI,"[5]; Example 1 […] PO, QD ×3, weekly ×3",58%
same,Antitumor Activity (% TGI),"[5]; MCF7, estrogen-dependent breast cancer, single agent, PO, QD × 15, 10 day-on-2 day-off, 5-10 mg/kg/adm",73 % TGI
same,CR or PR,[5]; single agent,no CR or PR
same,Antitumor Activity MDA-MB-157 (% TGI),[6]; [13],89 % TGI
same,Antitumor Activity (% TGI),"[6]; MDA-MB157, TN breast cancer, PO, QD × 15, 10 day-on-2 day-off, 5-10 mg/kg/adm",81 % TGI
same,CR (%),[7]; [17],0%
same,PR (%),[7]; [17],0%
same,Tumor Growth Delay,[7]; [17],7.8 days
same,Tumor Growth Delay (LCK),[7]; [17],0.9 LCK
same,Tumor Growth Delay,[7]; [18],9.5 days
same,Tumor Growth Delay (LCK),[7]; [18],1.1 LCK
same,antitumor efficacy (LCK),[7]; Example 1 as a single agent at 7.5 mpk,1.1 LCK
same,CR (%),[8]; [14],0%
same,PR (%),[8]; [14],0%
same,Tumor Growth Delay,[8]; [14],8.7 days
same,Tumor Growth Delay (LCK),[8]; [14],0.5 LCK
same,Tumor Growth Delay,[8]; [15],1.9 days
same,Tumor Growth Delay (LCK),[8]; [15],0.1 LCK
same,complete response (CR),[8]; single agent,none of the single agent produced CR
same,pIC50,[9],8.47
same,CR (%),"[10]; Example 1 1 mg/kg PO, QD x 21",0%
same,Cure (%),"[10]; Example 1 1 mg/kg PO, QD x 21",0%
same,PR (%),"[10]; Example 1 1 mg/kg PO, QD x 21",0%
same,Tumor Growth Delay,[10]; [19],4 days
same,Tumor Growth Delay (LCK),[10]; [19],0.2 LCK
same,antitumor effect (LCK),"[10]; Example 1 as a single agent, 1 mg/kg/adm",0.2 LCK
same,pIC50,[11],8.80
same,0.5 μM MsLM (% Remaining),[12],91%

# Source: patent US20150284342A1, “BIS(FLUOROALKYL)-1,4-BENZODIAZEPINONE COMPOUNDS” (BRISTOL-MYERS SQUIBB COMPANY, priority 2011, published 2015)
